Values joined by “and” are separate entries in the source; they are usually repeats but may differ in a detail not shown here. Equal entries are not always repeated. Toxic doses and inconclusive results are not listed.
Tested on: L1210 leukemia ip in BDF1 mice, survival T/C
Test: NCI In Vivo Anticancer Drug Screen. Data for tumor model L1210 Leukemia (intraperitoneal) in B6D2F1 (BDF1) mice
Settings: endpoint: mean survival time, higher = longer survival
Summary of the method: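 Transplanted-tumor mice were given test agent; controls received vehicle only. Survival readings from the two groups were divided (treated over control).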

[1] = dose: 100.0 mg/kg/injection, schedule: Q01DX001 (ip), vehicle: saline
[2] = dose: 200.0 mg/kg/injection, schedule: Q01DX001 (ip), vehicle: saline
[3] = dose: 50.0 mg/kg/injection, schedule: Q01DX009 (ip), vehicle: saline with Tween-80
[4] = dose: 100.0 mg/kg/injection, schedule: Q01DX009 (ip), vehicle: saline with Tween-80
[5] = dose: 100.0 mg/kg/injection, schedule: Q04DX003 (ip), vehicle: saline with Tween-80
[6] = dose: 200.0 mg/kg/injection, schedule: Q01DX009 (ip), vehicle: saline with Tween-80
[7] = dose: 200.0 mg/kg/injection, schedule: Q04DX003 (ip), vehicle: saline with Tween-80
[8] = dose: 50.0 mg/kg/injection, schedule: Q01DX001 (ip), vehicle: saline
[9] = dose: 25.0 mg/kg/injection, schedule: Q01DX009 (ip), vehicle: saline
[10] = dose: 100.0 mg/kg/injection, schedule: Q01DX009 (ip), vehicle: saline
[11] = dose: 100.0 mg/kg/injection, schedule: Q01DX001 (ip), vehicle: carboxymethylcellulose (CMC)
[12] = dose: 100.0 mg/kg/injection, schedule: Q04DX003 (ip), vehicle: Klucel (hydroxypropylcellulose) (HPC)
[13] = dose: 200.0 mg/kg/injection, schedule: Q04DX003 (ip), vehicle: Klucel (hydroxypropylcellulose) (HPC)
[14] = dose: 400.0 mg/kg/injection, schedule: Q04DX003 (ip), vehicle: saline with Tween-80
[15] = dose: 100.0 mg/kg/injection, schedule: Q01DX001 (ip), vehicle: Klucel (hydroxypropylcellulose) (HPC)
[16] = dose: 200.0 mg/kg/injection, schedule: Q01DX001 (ip), vehicle: Klucel (hydroxypropylcellulose) (HPC)
[17] = dose: 400.0 mg/kg/injection, schedule: Q01DX001 (ip), vehicle: Klucel (hydroxypropylcellulose) (HPC)

Clc1c2c(nc3ccccc13)CCCC2
T/C [1]: 95 % of control
T/C [2]: 95 % of control

CCCSc1nccc2n[nH]nc12
T/C [3]: 95 % of control
T/C (dose: 50.0 mg/kg/injection, schedule: Q04DX003 (ip), vehicle: saline with Tween-80): 98 % of control
T/C (dose: 100.0 mg/kg/injection, schedule: Q01DX001 (ip), vehicle: saline with Tween-80): 90 % of control
T/C [4]: 93 % of control
T/C [5]: 96 % of control
T/C (dose: 200.0 mg/kg/injection, schedule: Q01DX001 (ip), vehicle: saline with Tween-80): 95 % of control
T/C [6]: 95 % of control
T/C [7]: 100 % of control

O=[N+]([O-])c1ncc[nH]1
T/C [8]: 96 % of control
T/C [1]: 98 % of control
T/C [2]: 102 % of control

CN(C)c1ccc2c(c1)Cc1cc(N=C3C=CC(=O)O3)ccc1-2
T/C [9]: 100 % of control
T/C (dose: 25.0 mg/kg/injection, schedule: Q04DX003 (ip), vehicle: acetone): 95 % of control
T/C (dose: 50.0 mg/kg/injection, schedule: Q01DX009 (ip), vehicle: saline): 97 % of control
T/C (dose: 50.0 mg/kg/injection, schedule: Q04DX003 (ip), vehicle: acetone): 92 % of control
T/C [1]: 89 % of control
T/C [10]: 94 % of control
T/C (dose: 100.0 mg/kg/injection, schedule: Q04DX003 (ip), vehicle: acetone): 88 % of control

C=CCSc1ncnc2c1ncn2C1OC(CO)C(O)C1O (configuration not stated)
T/C (dose: 25.0 mg/kg/injection, schedule: Q01DX Z (ip), vehicle: saline): 109 % of control and 120 % of control
T/C (dose: 30.0 mg/kg/injection, schedule: Q01DX Z (ip), vehicle: saline): 106 % of control
T/C (dose: 45.0 mg/kg/injection, schedule: Q01DX Z (ip), vehicle: saline): 108 % of control
T/C (dose: 78.0 mg/kg/injection, schedule: Q01DX001 (ip), vehicle: carboxymethylcellulose (CMC)): 112 % of control
T/C (dose: 99.0 mg/kg/injection, schedule: Q01DX Z (ip), vehicle: saline): 162 % of control
T/C [11]: 115 % of control
T/C (dose: 100.0 mg/kg/injection, schedule: Q01DX Z (ip), vehicle: saline): 166 % of control
T/C (dose: 118.0 mg/kg/injection, schedule: Q01DX001 (ip), vehicle: carboxymethylcellulose (CMC)): 123 % of control
T/C (dose: 151.0 mg/kg/injection, schedule: Q01DX Z (ip), vehicle: saline): 170 % of control and 181 % of control
T/C (dose: 200.0 mg/kg/injection, schedule: Q01DX009 (ip), vehicle: carboxymethylcellulose (CMC)): 93 % of control
T/C (dose: 200.0 mg/kg/injection, schedule: Q01DX Z (ip), vehicle: saline): 150 % of control
T/C (dose: 266.0 mg/kg/injection, schedule: Q01DX001 (ip), vehicle: carboxymethylcellulose (CMC)): 150 % of control
T/C (dose: 300.0 mg/kg/injection, schedule: Q01DX Z (ip), vehicle: saline): 96 % of control
T/C (dose: 338.0 mg/kg/injection, schedule: Q01DX Z (ip), vehicle: saline): 111 % of control

CCCC[As](=O)(O)C(C)C
T/C (dose: 1.56 mg/kg/injection, schedule: Q01DX009 (ip), vehicle: saline): 100 % of control
T/C (dose: 3.12 mg/kg/injection, schedule: Q01DX009 (ip), vehicle: saline): 100 % of control
T/C (dose: 3.12 mg/kg/injection, schedule: Q04DX003 (ip), vehicle: saline): 112 % of control
T/C (dose: 6.25 mg/kg/injection, schedule: Q04DX002 (ip), vehicle: saline): 120 % of control
T/C (dose: 6.25 mg/kg/injection, schedule: Q04DX003 (ip), vehicle: saline): 107 % of control
T/C (dose: 12.5 mg/kg/injection, schedule: Q01DX001 (ip), vehicle: saline): 112 % of control
T/C (dose: 12.5 mg/kg/injection, schedule: Q04DX002 (ip), vehicle: saline): 110 % of control
T/C (dose: 12.5 mg/kg/injection, schedule: Q04DX003 (ip), vehicle: saline): 118 % of control
T/C (dose: 25.0 mg/kg/injection, schedule: Q01DX001 (ip), vehicle: saline): 117 % of control
T/C [9]: 106 % of control and 111 % of control
T/C (dose: 25.0 mg/kg/injection, schedule: Q04DX003 (ip), vehicle: saline): 105 % of control
T/C [8]: 103 % of control
T/C (dose: 50.0 mg/kg/injection, schedule: Q04DX002 (ip), vehicle: saline): 117 % of control

OC1C2CC3C(C2)C13 (configuration not stated)
T/C [10]: 102 % of control
T/C (dose: 200.0 mg/kg/injection, schedule: Q01DX009 (ip), vehicle: saline): 96 % of control
T/C (dose: 400.0 mg/kg/injection, schedule: Q01DX009 (ip), vehicle: saline): 98 % of control

CC(=O)Nc1ccc(NC(=O)NCCCl)cc1
T/C (dose: 50.0 mg/kg/injection, schedule: Q01DX009 (ip), vehicle: Klucel (hydroxypropylcellulose) (HPC)): 96 % of control
T/C (dose: 100.0 mg/kg/injection, schedule: Q01DX009 (ip), vehicle: Klucel (hydroxypropylcellulose) (HPC)): 99 % of control
T/C [12]: 103 % of control
T/C (dose: 200.0 mg/kg/injection, schedule: Q01DX009 (ip), vehicle: Klucel (hydroxypropylcellulose) (HPC)): 89 % of control
T/C [13]: 100 % of control

CC(=O)OC1CCCC1OC(=O)c1ccc([N+](=O)[O-])cc1 (configuration not stated)
T/C (dose: 100.0 mg/kg/injection, schedule: Q04DX003 (ip), vehicle: other): 106 % of control
T/C (dose: 200.0 mg/kg/injection, schedule: Q04DX003 (ip), vehicle: other): 96 % of control
T/C (dose: 400.0 mg/kg/injection, schedule: Q04DX003 (ip), vehicle: other): 95 % of control

Cc1cc(O)n(Cc2ccccc2)c(=O)c1
T/C (dose: 25.0 mg/kg/injection, schedule: Q01DX009 (ip), vehicle: saline with Tween-80): 96 % of control
T/C [3]: 93 % of control
T/C [4]: 93 % of control
T/C [5]: 109 % of control
T/C [6]: 94 % of control
T/C [7]: 98 % of control
T/C [14]: 90 % of control

Nc1nc(N)nc(CCCCCCc2nc(N)nc(N)n2)n1
T/C (dose: 50.0 mg/kg/injection, schedule: Q01DX001 (ip), vehicle: carboxymethylcellulose (CMC)): 88 % of control
T/C [11]: 88 % of control
T/C (dose: 200.0 mg/kg/injection, schedule: Q01DX001 (ip), vehicle: carboxymethylcellulose (CMC)): 98 % of control

COC(=O)C(CCCCN=Cc1ccccc1O)N=Cc1ccccc1O.[Ni] (configuration not stated)
T/C [5]: 87 % of control
T/C [7]: 88 % of control

O=C1c2ccccc2C(=O)C1c1ccccc1
T/C [12]: 102 % of control
T/C [13]: 104 % of control
T/C (dose: 400.0 mg/kg/injection, schedule: Q04DX003 (ip), vehicle: Klucel (hydroxypropylcellulose) (HPC)): 106 % of control

C=CCN1C(=O)NC(=O)C1c1ccsc1 (configuration not stated)
T/C [1]: 90 % of control
T/C [2]: 93 % of control
T/C (dose: 400.0 mg/kg/injection, schedule: Q01DX001 (ip), vehicle: saline): 93 % of control

O=C(c1ccccc1)C1NC1c1ccccc1 (configuration not stated)
T/C [15]: 97 % of control
T/C [16]: 92 % of control
T/C [17]: 95 % of control

CCN(CC)CCCC(C)Nc1cc(C)nc(Nc2nc3cc(Cl)c(Cl)cc3[nH]2)n1 (configuration not stated)
T/C (dose: 5.0 mg/kg/injection, schedule: Q01DX009 (ip), vehicle: saline with Tween-80): 96 % of control
T/C (dose: 10.0 mg/kg/injection, schedule: Q01DX009 (ip), vehicle: saline with Tween-80): 93 % of control

CC(=O)NC(O)C(Cl)(Cl)Cl (configuration not stated)
T/C (dose: 100.0 mg/kg/injection, schedule: Q01DX009 (ip), vehicle: saline sonified): 102 % of control
T/C [5]: 100 % of control
T/C (dose: 200.0 mg/kg/injection, schedule: Q01DX009 (ip), vehicle: saline sonified): 95 % of control
T/C [7]: 96 % of control
T/C (dose: 400.0 mg/kg/injection, schedule: Q01DX009 (ip), vehicle: saline sonified): 93 % of control
T/C [14]: 110 % of control

OC(CNc1ccccc1)CN1CCCC1 (configuration not stated)
T/C (dose: 100.0 mg/kg/injection, schedule: Q04DX003 (ip), vehicle: saline): 89 % of control
T/C (dose: 200.0 mg/kg/injection, schedule: Q04DX003 (ip), vehicle: saline): 94 % of control

NC(=O)c1cc(Cl)cc(Cl)c1N
T/C [15]: 100 % of control
T/C [16]: 107 % of control
T/C [17]: 111 % of control

Reference: PubChem BioAssay AID248 (DTP/NCI, 2004)
